This note sets out measurements from US6489317B1, “Method for eradication of Helicobacter pylori” (priority 1998, dated 2002).

For this test, the system named is H. pylori. Put plainly: E-test (epsilon test, AB Biodisc) antibiotic sensitivity of H. pylori cultured from patients. The test is classed as cell-based, Helicobacter pylori. The source says:
The E-test is used as a graded antibiotic sensitivity detecting strip for examining resistance of H.pylori.

Turning to `CO[C@H]1/C=C/O[C@@]2(C)Oc3c(C)c(O)c4c(c3C2=O)C2=NC3(CCN(CC(C)C)CC3)NC2=C(NC(=O)/C(C)=C\C=C\[C@H](C)[C@H](O)[C@@H](C)[C@@H](O)[C@@H](C)[C@H](OC(C)=O)[C@@H]1C)C4=O` [Rifabutin], the E. Test Rifabutin (H. pylori isolate of each patient) was below 0.002 µg/mL. Besides, the “E. Test Rifabutin Result” value (H. pylori isolate of each patient, Resistant/Sensitive) is recorded as “Sensitive”. For the setting “all cases of H. pylori infection resistant to one or both of metronidazole and clarithromycin”, the “sensitivity of infection to rifabutin” value is “sensitive”.
